27 molecules from EP2058315A1, “1H-Furo[3,2-C]Pyrazoles active as aurora kinase inhibitors” (Nerviano Medical Sciences S.r.l., priority 2007, dated 2009) can be followed below.

The assay addresses T1, Aurora-2 (Homo sapiens, UniProt O14965).
T1 sequence (O14965 1-403): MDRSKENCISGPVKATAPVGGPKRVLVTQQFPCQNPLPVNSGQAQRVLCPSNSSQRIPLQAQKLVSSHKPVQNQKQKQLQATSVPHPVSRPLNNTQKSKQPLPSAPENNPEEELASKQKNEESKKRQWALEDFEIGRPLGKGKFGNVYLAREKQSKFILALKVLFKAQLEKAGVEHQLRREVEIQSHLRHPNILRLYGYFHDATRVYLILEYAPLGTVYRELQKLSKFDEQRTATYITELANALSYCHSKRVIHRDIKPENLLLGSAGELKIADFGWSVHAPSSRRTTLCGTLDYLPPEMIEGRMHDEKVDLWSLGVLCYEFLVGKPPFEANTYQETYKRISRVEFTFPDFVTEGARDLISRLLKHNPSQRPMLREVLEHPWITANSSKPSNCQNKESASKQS
Put plainly: Inhibition assay of Aurora-2 activity (SPA technology). The format is biochemical. The conditions noted are these: screened according to the methods of the pharmacology section; read-out: IC50values for Aur2 inhibition. The method, then:
The inhibiting activity and the potency of selected compounds is determined through a method of assay based on the use of the SPA technology (Amersham Pharmacia Biotech).
The assay consists of the transfer of radioactivity labelled phosphate moiety by the kinase to a biotinylated substrate. The resulting 33P-labelled biotinylated product is allowed to bind to streptavidin-coated SPA beads (biotin capacity 130 pmol/mg), and light emitted was measured in a scintillation counter.
Kinase reaction: 8 µM biotinylated peptide (4 repeats of LRRWSLG, commercially available from Sigma, catalogue no. L-3523), 10 µM ATP (0.5 uCi P^33γ-ATP), 7.5 ng Aurora 2, inhibitor in a final volume of 30 µl buffer (HEPES 50 mM pH 7.0, MgCl2 10 mM, 1 mM DTT, 0.2 mg/mL BSA, 3 µM orthovanadate) were added to each well of a 96 U bottom well plate. After 60 minutes at room temperature incubation, the reaction was stopped and biotinylated peptide captured by adding 100 µl of bead suspension.
Stratification: 100 µl of CsCl 5 M were added to each well and stood for 4 hours before radioactivity was counted in the Top-Count instrument.
IC50 determination: inhibitors were tested at different concentrations ranging from 0.0015 to 10 µM. Experimental data were analyzed by the computer program GraphPad Prizm using the four parameter logistic equation: y = bottom+(top-bottom)/(1+10^((logIC50-x)*slope)) where x is the logarithm of the inhibitor concentration, y is the response; y starts at bottom and goes to top with a sigmoid shape. Ki calculation: Experimental method: Reaction was carried out in buffer (10 mM Tris, pH 7.5, 10 mM MgCl2, 0.2 mg/mL BSA, 7.5 mM DTT) containing 3.7 nM enzyme, histone and ATP (constant ratio of cold/labeled ATP 1/3000). The reaction was stopped with EDTA and the substrate captured on phosphomembrane (Multiscreen 96 well plates from Millipore). After extensive washing, the multiscreen plates were read on a top counter. Control (time zero) for each ATP and histone concentrations was measured.
As for `Cc1occc1C(=O)Nc1n[nH]c2cc(C(=O)NC(C)(C)c3ccccc3)oc12` [Compound 41, 3-[(2-methyl-3-furoyl)amino]-N-(1-methyl-1-phenylethyl)-1H-furo[3,2-c]pyrazole-5-carboxamide], the IC50 was less than 10 nM. Take `Cc1cc(C(=O)Nc2n[nH]c3cc(C(=O)NC(C)(C)c4ccccc4)oc23)n(C)n1` [Compound 38, 3-{[(1,3-dimethyl-1 H-pyrazol-5-yl)carbonyl]amino}-N-(1-methyl-1-phenylethyl)-1H-furo[3,2-c]pyrazole-5-carboxamide]: the IC50 was less than 10 nM. The same measure for `COc1ccc(C(=O)Nc2n[nH]c3cc(C(=O)NC(C)(C)c4ccccc4)oc23)cc1` [Compound 18, 3-[(4-methoxybenzoyl)amino]-N-(1-methyl-1-phenylethyl)-1H-furo[3,2-c]pyrazole-5-carboxamide]: less than 10 nM; for `CC(C)(NC(=O)c1cc2[nH]nc(NC(=O)c3cccs3)c2o1)c1ccccc1F` [Compound 57, N-[1-(2-fluorophenyl)-1-methylethyl]-3-[(2-thienylcarbonyl)amino]-1H-furo[3,2-c]pyrazole-5-carboxamide]: less than 10 nM. The result for `CC(C)(NC(=O)c1cc2[nH]nc(NC(=O)c3cscn3)c2o1)c1ccccc1` [Compound 64, N-(1-methyl-1-phenylethyl)-3-[(1,3-thiazol-4-ylcarbonyl)amino]-1H-furo[3,2-c]pyrazole-5-carboxamide] reads less than 10 nM; that for `CC(C)(NC(=O)c1cc2[nH]nc(NC(=O)c3cccs3)c2o1)c1ccc(F)cc1F` [Compound 58, N-[1-(2,4-difluorophenyl)-1-methylethyl]-3-[(2-thienylcarbonyl)amino]-1H-furo[3,2-c]pyrazole-5-carboxamide], less than 10 nM; that for `CC(C)(NC(=O)c1cc2[nH]nc(NC(=O)c3ccoc3)c2o1)c1ccccc1` [Compound 62, 3-(3-furoylamino)-N-(1-methyl-1-phenylethyl)-1H-furo[3,2-c]pyrazole-5-carboxamide], less than 10 nM. The same measure for `Cc1ccc(C(=O)Nc2n[nH]c3cc(C(=O)NC(C)(C)c4ccccc4)oc23)o1` [Compound 51, 3-[(5-methyl-2-furoyl)amino]-N-(1-methyl-1-phenylethyl)-1H-furo[3,2-c]pyrazole-5-carboxamide]: less than 10 nM.

With `CC(C)(NC(=O)c1cc2[nH]nc(NC(=O)c3ccsc3)c2o1)c1ccccc1` [Compound 63, N-(1-methyl-1-phenylethyl)-3-[(3-thienylcarbonyl)amino]-1H-furo[3,2-c]pyrazole-5-carboxamide], the IC50 was less than 10 nM. The same measure for `O=C(Nc1n[nH]c2cc(C(=O)NC3(c4ccccc4)CC3)oc12)c1ccc(N2CCOCC2)cc1` [Compound 7, 3-[(4-morpholin-4-ylbenzoyl)amino]-N-(1-phenylcyclopropyl)-1H-furo[3,2-c]pyrazole-5-carboxamide]: less than 10 nM.

Regarding `CN1CCN(c2ccc(C(=O)Nc3n[nH]c4cc(C(=O)NC5(c6ccccc6)CCCC5)oc34)cc2)CC1` [Compound 27, 3-{[4-(4-methylpiperazin-1-yl)benzoyl]amino}-N-(1-phenylcyclopentyl)-1H-furo[3,2-c]pyrazole-5-carboxamide], the IC50 is less than 10 nM. In the case of `CC(C)(NC(=O)c1cc2[nH]nc(NC(=O)c3ccc(OCCN4CCCC4)cc3)c2o1)c1ccccc1` [Compound 68, N-(1-methyl-1-phenylethyl)-3-{[4-(2-pyrrolidin-1-ylethoxy)benzoyl]amino}-1H-furo[3,2-c]pyrazole-5-carboxamide], the IC50 was less than 10 nM. Take `Cc1csc(C(=O)Nc2n[nH]c3cc(C(=O)NC(C)(C)c4ccccc4)oc23)c1` [Compound 48, N-(1-methyl-1-phenylethyl)-3-{[(4-methyl-2-thienyl)carbonyl]amino}-1H-furo[3,2-c]pyrazole-5-carboxamide]: the IC50 is less than 10 nM. `CN1CCN(Cc2ccc(C(=O)Nc3n[nH]c4cc(C(=O)NC(C)(C)c5ccccc5F)oc34)cc2)CC1` [Compound 60, N-[1-(2-fluorophenyl)-1-methylethyl]-3-({4-[(4-methylpiperazin-1-yl)methyl]benzoyl}amino)-1H-furo[3,2-c]pyrazole-5-carboxamide]: the IC50 was less than 10 nM. The same measure for `CC(C)(NC(=O)c1cc2[nH]nc(NC(=O)c3ccccc3)c2o1)c1ccccc1` [Compound 71, 3-(benzoylamino)-N-(1-methyl-1-phenylethyl)-1H-furo[3,2-c]pyrazole-5-carboxamide]: less than 10 nM; for `Cc1cc(C(=O)Nc2n[nH]c3cc(C(=O)NC(C)(C)c4ccccc4)oc23)c(C)o1` [Compound 50, 3-[(2,5-dimethyl-3-furoyl)amino]-N-(1-methyl-1-phenylethyl)-1H-furo[3,2-c]pyrazole-5-carboxamide]: less than 10 nM. For the molecule `Cn1nccc1C(=O)Nc1n[nH]c2cc(C(=O)NC(C)(C)c3ccccc3)oc12` [Compound 55, N-(1-methyl-1-phenylethyl)-3-{[(1-methyl-1H-pyrazol-5-yl)carbonyl]amino}-1H-furo[3,2-c]pyrazole-5-carboxamide], the IC50 is less than 10 nM. For `CC(C)(NC(=O)c1cc2[nH]nc(NC(=O)c3ccco3)c2o1)c1ccccc1` [Compound 28, 3-(2-furoylamino)-N-(1-methyl-1-phenylethyl)-1H-furo[3,2-c]pyrazole-5-carboxamide], the IC50 was less than 10 nM. The result for `Cc1ccsc1C(=O)Nc1n[nH]c2cc(C(=O)NC(C)(C)c3ccccc3)oc12` [Compound 44, N-(1-methyl-1-phenylethyl)-3-{[(3-methyl-2-thienyl)carbonyl]amino}-1H-furo[3,2-c]pyrazole-5-carboxamide] reads less than 10 nM. The same measure for `CC(C)(NC(=O)c1cc2[nH]nc(NC(=O)c3ccc(N4CCOCC4)cc3)c2o1)c1ccccc1` [Compound 75, N-(1-methyl-1-phenylethyl)-3-[(4-morpholin-4-ylbenzoyl)amino]-1H-furo[3,2-c]pyrazole-5-carboxamide]: less than 10 nM; for `CN1CCN(c2ccc(C(=O)Nc3n[nH]c4cc(C(=O)NC(C)(C)c5ccccc5F)oc34)cc2)CC1` [Compound 67, N-[1-(2-fluorophenyl)-1-methylethyl]-3-{[4-(4-methylpiperazin-1-yl)benzoyl]amino}-1H-furo[3,2-c]pyrazole-5-carboxamide]: less than 10 nM. The result for `Cc1ccc(C(=O)Nc2n[nH]c3cc(C(=O)NC(C)(C)c4ccccc4)oc23)s1` [Compound 45, N-(1-methyl-1-phenylethyl)-3-{[(5-methyl-2-thienyl)carbonyl]amino}-1H-furo[3,2-c]pyrazole-5-carboxamide] reads less than 10 nM.

Take `CN1CCN(c2ccc(C(=O)Nc3n[nH]c4cc(C(=O)NC(C)(C)c5cccc(Cl)c5)oc34)cc2)CC1` [Compound 26, N-[1-(3-chlorophenyl)-1-methylethyl]-3-{[4-(4-methylpiperazin-1-yl)benzoyl]amino}-1H-furo[3,2-c]pyrazole-5-carboxamide]: the IC50 was less than 10 nM. The result for `CC(C)(NC(=O)c1cc2[nH]nc(NC(=O)c3ccc(CN4CCC4)cc3)c2o1)c1ccccc1` [Compound 43, 3-{[4-(azetidin-1-ylmethyl)benzoyl]amino}-N-(1-methyl-1-phenylethyl)-1H-furo[3,2-c]pyrazole-5-carboxamide] reads less than 10 nM; that for `CC(C)(NC(=O)c1cc2[nH]nc(NC(=O)c3ccc(CN4CCOCC4)cc3)c2o1)c1ccccc1` [Compound 32, N-(1-methyl-1-phenylethyl)-3-{[4-(morpholin-4-ylmethyl)benzoyl]amino}-1H-furo[3,2-c]pyrazole-5-carboxamide], less than 10 nM.

`CN1CCN(c2ccc(C(=O)Nc3n[nH]c4cc(C(=O)NC(C)(C)c5ccccc5)oc34)cc2)CC1` [Compound 10, N-(1-methyl-1-phenylethyl)-3-{[4-(4-methylpiperazin-1-yl)benzoyl]amino}-1H-furo[3,2-c]pyrazole-5-carboxamide]: the IC50 is less than 10 nM. The result for `CC(C)NCc1ccc(C(=O)Nc2n[nH]c3cc(C(=O)NC(C)(C)c4ccccc4)oc23)cc1` [Compound 70, 3-({4-[(isopropylamino)methyl]benzoyl}amino)-N-(1-methyl-1-phenylethyl)-1H-furo[3,2-c]pyrazole-5-carboxamide] reads less than 10 nM.
